# Assay results reported in patent US12612388B2, “Receptor-interacting protein 1 inhibitors including piperazine heterocyclic amide ureas” (SIRONAX LTD., priority 2020, dated 2026).
# Test system: HT-29 cells
# Assay: Cellular RIP1 inhibitory activity: necroptosis of HT-29 cells induced by TNF-α/SMAC mimetic/zVAD-FMK, CellTiter-Glo viability
# Type: cell-based
# Conditions: Homo sapiens; HT-29 cells; TNF-α 10 ng/ml, SMAC mimetic 6 μM, zVAD-FMK 10 μM; 20 hours; geometric mean, 10 points, duplicates; read-out: EC50 (Cell activity; Necrosis or Necroptosis Inhibitory Activity)
# Summary of the method: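 HT-29 cells (~5,000/well) in FBS-free McCoy's 5A were driven into necroptosis with TNF-α (10 ng/ml), SMAC mimetic (6 μM) and zVAD-FMK (10 μM) alongside 10-point 1:3 compound dilutions for 20 h at 37 °C. Viability measured by CellTiter-Glo luminescence; geometric mean EC50 from duplicate dose-responses.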
row,SMILES,EC50 [nM]
1,"COC1CN(C(=O)c2nc(N3CCN(C(=O)N4N=CC[C@H]4c4cc(F)cc(C#N)c4)CC3)ncc2Cl)C1 [Compound 63, (S)-3-(1-(4-(5-chloro-4-(3-methoxyazetidine-1-carbonyl)pyrimidin-2-yl)piperazin-1-carbonyl)-4,5-dihydro-1H-pyrazol-5-yl)-5-fluorobenzonitrile]",0.1 to 100
2,"COC1CN(C(=O)c2nc(N3CCN(C(=O)N4N=CC[C@H]4c4cncc(F)c4)CC3)ncc2Cl)C1 [Compound 64, (S)-(5-chloro-2-(4-(5-(5-fluoropyridin-3-yl)-4,5-dihydro-1H-pyrazole-1-carbonyl)piperazin-1-yl)pyrimidin-4-yl)(3-methoxyazetidin-1-yl)methanone]",100 to 1000
3,"COC1CN(C(=O)c2nc(N3CCN(C(=O)N4N=CCC4c4cncc(Cl)c4)CC3)ncc2F)C1 (stereo not shown) [Compound 66, (5-(5-chloropyridin-3-yl)-4,5-dihydro-1H-pyrazol-1-yl)(4-(5-fluoro-4-(3-methoxyazetidine-1-carbonyl)pyrimidin-2-yl)piperazin-1-yl)methanone]",0.1 to 100
4,"NC(=O)c1cc(N2CCN(C(=O)N3N=CC[C@H]3c3cc(F)cc(F)c3)CC2)c(F)cn1 [Compound 67, (S)-4-(4-(5-(3,5-difluorophenyl)-4,5-dihydro-1H-pyrazole-1-carbonyl)piperazin-1-yl)-5-fluoropicolinamide]",100 to 1000
